In US6949558B2, “Enhancement of taxane-based chemotherapy by a CDK1 antagonist” (Yale University, priority 2001, dated 2005):
Numbered stars: 1 amine (or outer) side, 2 acyl side, 3 side chain; on linkers, the order of the positions; unused ones are H or OH. Bridge positions count the residues as written; N and C are the ends. Square brackets hold non-standard residues; d marks the D form. Peptide text beside a SMILES is read from it. I, II: the chains in the order shown. * marks the point of attachment. Actinocin(9to1) = Cc1c2oc3c(C)ccc(C(=O)[*:1])c3nc-2c(C(=O)[*:2])c(N)c1=O; NMeV = CN[C@H](C(=O)O)C(C)C; Cbz = O=C(OCc1ccccc1)*; Sar = CNCC(=O)O; CH2F = FC*

Assays:
Format in all cases: cell-based, human
[1] = test system: p34^cdc2 kinase activity (MPM-2 epitope) in HeLa cells; assay: MPM-2 mitotic phosphoepitope expression (p34^cdc2 kinase activity) in HeLa cells; conditions: HeLa
[2] = test system: survivin expression in MCF-7 cells; assay: Survivin expression by Western blotting in MCF-7 cells; conditions: for effect on the increase in survivin expression mediated by adriamycin, taxol or 50 J/m^2 UVB: preincubation with cycloheximide 2 mg/ml or actinomycin D 1 μg/ml
Description: (§1) Cell Cultures, Proteins and Antibodies: Breast carcinoma MCF-7 and cervical carcinoma HeLa cells (American Type Culture Collection, Manassas, Va.) were maintained in culture according to the manufacturer's specifications. For treatment with genotoxic agents, HeLa or MCF-7 cells were incubated with vehicle (DMSO) or taxol (2 μM, Sigma Chemical Co., St. Louis, Mo.), adriamycin (100 nM, Sigma), cis-platin (3 μM, Sigma) or subjected to ultraviolet B (UVB) irradiation at 50 or 300 J/m^2. In some experiments, HeLa or MCF-7 treated with taxol, adriamycin or UVB as described above were incubated with inhibitors of transcription (actinomycin D, 1 μg/ml) or translation (cycloheximide, 2 mg/ml) before determination of protein expression by Western blotting. […] A replication-deficient adenovirus encoding wild type survivin (pAd-Survivin) or control encoding Green Fluorescence Protein (pAd-GFP) was generated using the pAd-Easy system as described previously (M. Mesri et al. (2001) J. Clin. Invest. 108: 981-90), and propagated in HEK293 cells with purification by CsCl banding. […] Antibodies to p34^cdc2 or bcl-2 were obtained from Pharmingen (San Diego, Calif.) and R&D, respectively. An antibody to β-actin was from Sigma and antibodies to MPM-2 mitotic phosphoproteins was from Upstate Biotechnology (Lake Placid, N.Y.).
(§2) In some experiments, total RNA was extracted from MCF-7 cells at various time intervals after adriamycin treatment, and hybridized with 32 P-labeled survivin cDNA as described previously. Radioactive bands were detected by autoradiography. […] In other experiments, samples were transferred to nylon membranes and analyzed by Western blotting with antibodies to p34^cdc2 (1 μg/ml), survivin (2 μg/ml), or survivinT34* (5 μg/ml).

[3] = test system: survivin expression in HeLa cells; assay: Survivin expression by Western blotting in HeLa cells
Description: as §1, §2
In other experiments, HeLa cells were treated with taxol (0.2 μM) for 16 h followed by the DNA damaging agent adriamycin (100 nM, Sigma) or the nucleoside analog 5-Fluorouracil (500 μM, Sigma) for 8-32 h at 37° C. […] In some experiments, HeLa cells were transfected by lipofectamine with a minimal survivin promoter construct upstream of a luciferase reporter gene (pLuc-cyc1.2), as described (F. Li et al. (1998) Nature 396: 580-584). Cells were treated with taxol (2 μM) or UVB (50 J/m2), and analyzed for changes in luciferase activity at increasing time intervals (12-36 h) in a luminometer. Luciferase values were normalized to β-galactosidase expression. […] The immune complexes were separated by SDS gel electrophoresis and analyzed with antibodies to survivin or a-survivinT34* by Western blotting.

HeLa cells = assay: Apoptosis by DNA content analysis and flow cytometry in HeLa cells
[4] = test system: p34^cdc2 kinase activity (MPM-2 epitope) in MCF-7 cells; assay: MPM-2 mitotic phosphoepitope expression (p34^cdc2 kinase activity) in MCF-7 cells; conditions: vincristine (FIG. 7)
Description: MPM-2 Mitotic Phosphoepitope Expression: For detection of mitotic phosphoproteins (D. D. Vandre et al. (1989) J. Cell Sci. 94: 245-58), MCF-7 cells (1-2×10^5 cells/60 mm dish) were treated with taxol (2 μM), adriamycin (100 nM), 50 or 300 J/m^2 UVB irradiation and cultured for 0, 8, 16, 24 or 36 h at 37° C. Cells were fixed in 70% ethanol, labeled with MPM-2 antibody (6 μg/ml) followed by addition of goat anti-mouse FITC (Boehringer Mannheim) for 1 h at 22° C. in the presence of 5 μg/ml propidium iodide (PI) containing 50 μg/ml RNase A. Samples were analyzed on a FACScan (Becton Dickinson, Mountain View, Calif.), using CellQuest software.
MPM-2 Mitotic Phosphoepitope Expression: For detection of mitotic phosphoproteins (D. D. Vandre et al. (1989) J. Cell Sci. 94: 245-258), MCF-7 cells (1-2×10^5 cells/60 mm dish) were treated with taxol (0.2 μM), or vincristine (100 nM) for increasing time intervals (8-36 h) at 37° C. Cells were fixed in 70% ethanol, labeled with MPM-2 antibody (6 μg/ml; Upstate Biotechnology, Lake Placid, N.Y.) followed by addition of goat anti-mouse FITC (Boehringer Mannheim) for 1 h at 22° C. in the presence of 5 μg/ml propidium iodide containing 50 μg/ml RNAse A. Samples were analyzed on a FACScan (Becton Dickinson, Mountain View, Calif.), using CellQuest software. Data are expressed as %MPM-2 positive cells in the entire population.

MCF-7 cells = assay: Apoptosis by DNA content analysis and flow cytometry in MCF-7 cells; conditions: taxol 2 μM, adriamycin 100 nM, cis-platin 3 μM (Example 7)
Description: Cervical carcinoma HeLa (functionally inactivated p53) cells or breast carcinoma MCF-7 (wild type p53) cells were plated at 50-60% confluency in C-6 wells. […]
After 4, 8, 16, and 32 hours of incubation, without removing taxol from the wells, purvalanol A was added at three increasing concentrations, 1, 10 and 20 uM (FIG. 1). A control was performed with addition of purvalanol A at the 0-h time point.
The cell populations were harvested at increasing time intervals from the 0-h time point or corresponding to the addition of purvalanol A. Apoptosis was analyzed by DNA content analysis and flow cytometry (DAPI staining).

[5] = genistein 25 μM or TNF a 5 ng/ml, 48 h

With `O=C1Cc2c([nH]c3ccc([N+](=O)[O-])cc23)-c2ccccc2N1` [alsterpaullone] the “MPM-2 mitotic phosphoepitope expression” value ([1]; taxol 0.2 μM 16 h then Cdk inhibitor for 16 h (Purvalanol A 10 μM, alsterpaullone 20 μM, flavopiridol 250 nM, olomoucine 400 μM)) was “partially inhibited MPM-2 expression” and the “MPM-2 mitotic phosphoepitope expression” value ([1]; taxol 0.2 μM 16 h then Cdk inhibitor for 32 h) was “suppressed mitotic phosphoprotein expression”.

In the case of `Cc1c2oc3c(C)ccc(C(=O)N[C@@H]4C(=O)N[C@H](C(C)C)C(=O)N5CCC[C@H]5C(=O)N(C)CC(=O)N(C)[C@@H](C(C)C)C(=O)O[C@@H]4C)c3nc-2c(C(=O)N[C@@H]2C(=O)N[C@H](C(C)C)C(=O)N3CCC[C@H]3C(=O)N(C)CC(=O)N(C)[C@@H](C(C)C)C(=O)O[C@@H]2C)c(N)c1=O` [actinomycin D] (I: T[dV]P[Sar][NMeV] / II: T[dV]P[Sar][NMeV]; ester I:1-I:C, II:1-II:C; linker I:N-II:N via Actinocin(9to1)), the “effect on the increase in survivin expression mediated by adriamycin, taxol or 50 J/m^2 UVB” value [2] is reported as “significantly inhibited the increase in survivin expression”.

For `O=c1c(-c2ccc(O)cc2)coc2cc(O)cc(O)c12` [genistein], the survivin expression [3, 5] was “did not affect survivin expression”.

For TNF a, the survivin expression [3, 5] was “did not affect survivin expression”.

In the case of `O=c1[nH]cc(F)c(=O)[nH]1` [5-FU, 5-Fluorouracil], the “enhancement of apoptosis vs single agent treatment” value (HeLa cells; taxol 0.2 μM 16 h then adriamycin 100 nM or 5-Fluorouracil 500 μM) is reported as “did not result in enhanced apoptosis”.

In the case of `C[C@@H]1C[C@@H]([C@H](O)CC2CC(=O)NC(=O)C2)C(=O)[C@@H](C)C1` [cycloheximide], the “effect on the increase in survivin expression mediated by adriamycin, taxol or 50 J/m^2 UVB” value [2] is reported as “significantly inhibited the increase in survivin expression”.

For `CC[C@]1(O)C[C@H]2CN(CCc3c([nH]c4ccccc34)[C@@](C(=O)OC)(c3cc4c(cc3OC)N(C=O)[C@H]3[C@@](O)(C(=O)OC)[C@H](OC(C)=O)[C@]5(CC)C=CCN6CC[C@]43[C@@H]65)C2)C1` [vincristine], the survivin expression ([3]; vincristine 100 nM) was “increased survivin expression”, the cell cycle arrest (HeLa cells; vincristine 100 nM) was “sustained mitotic (prometaphase) arrest” and the cdc2 kinase activity [4] was “induces cdc2 kinase activity”. For the same compound, the “p34^cdc2 kinase activity” value ([1]; vincristine 100 nM) was “elevated p34^cdc2 kinase activity”.

With `COC(=O)C[C@H](NC(=O)[C@H](C)NC(=O)[C@@H](NC(=O)OCc1ccccc1)C(C)C)C(=O)CF` [Z-VAD-fink, Z-VAD-fmk] (Cbz-Val-Ala-Asp(OMe)-CH2F) the “effect on flavopiridol-induced apoptosis” value (HeLa cells; preincubation with caspase inhibitor) was “suppressed flavopiridol-induced apoptosis”.

In the case of `N.N.[Cl][Pt][Cl]` [cis-platin], the apoptosis (MCF-7 cells) is reported as “negligible apoptosis”, the cell cycle arrest (MCF-7 cells) is reported as “G2/M arrest” and the “effect on survivin levels” value ([2]; cis-platin 3 μM) is reported as “did not affect survivin levels”. For the same compound, the “increased expression of survivin, compared with taxol” value ([2]; cisplatin 3 μM) was “less effective”.
